Source: US10077247B2, “Tricyclic spiro compound” (ONO PHARMACEUTICAL CO., LTD., priority 2015, dated 2018)

Experiments:
rat EP4 receptor = rat EP4 receptor (Rattus norvegicus (Rat), UniProt P43114); test: EP4 antagonistic activity measurement using prostanoid receptor subtype expressing cells (cAMP); assay type: cell-based; settings: CHO cells expressing rat EP4 receptor; inhibition of cAMP production by PGE2 10 nM
Experimental: CHO cells expressing rat EP4 receptor subtypes were prepared according to the methods of Nishigaki et al. (FEBS Letters, Vol. 364, p. 339-341, 1995), and used for experiment. Cultured subconfluent cells were detached, and suspended in an assay medium (MEM containing 1 mmol/L IBMX, 1% HSA) in a concentration of 1×10^6 cells/mL. For reaction, PGE2 was added to the cell suspension (25 μL) in a final concentration of 10 nmol/L, either alone or as a 25-μL PGE2 solution containing the test compound. After 30 minutes of reaction at room temperature, the amount of cAMP in the cells was quantified according to the method in the descriptions of the cAMP assay kit (CISBIO).
The antagonistic effect (IC50 value) of the test compound was calculated as a value that represents an inhibition rate against a reaction with PGE2 alone at 10 nM, a concentration that produces a submaximal cAMP producing effect.

[1] = test system: mouse colorectal cancer cell line CT26; test: Anti-tumor effect in allograft model of mouse colorectal cancer cell line CT26; assay type: in vivo; settings: 10 mg/kg orally, twice a day, Balb/C mouse, 21 days from transplant
Experimental: The anti-tumor effect of the present compound was evaluated in an allograft model of the mouse colorectal cancer cell line CT26. CT26 was cultured in a CO2 incubator, using an RPMI-1640 medium containing 10 vol % inactivated fetal bovine serum (FBS), 100 units/mL of penicillin, and 100 µg/mL of streptomycin. On the day of transplant, CT26 was harvested after removing the culture supernatant, and washing the cells with phosphate buffer (hereinafter, “PBS”). The harvested CT26 cells were suspended in Hank's buffer to obtain transplant cells. The transplant cells (3×10^5) were then subcutaneously transplanted to the right back of a female Balb/C mouse (Charles River Laboratories Japan Inc.) under anesthesia. The present compound was orally administered in a dose of 10 mg/kg, once on the day of transplant, and twice a day from the next day. For the control group, distilled water was administered for the same duration as in the present compound-administered group. The tumor volume (mm^3) was determined by calculating a relative tumor volume from the measured tumor lengths along the minor axis and major axis using a digital caliper, according to the following formulae 1 and 2. Tumor volume=[(minor axis)^2×major axis]/2 Relative tumor volume=medium value of tumor volumes of each group after 21 days from transplant/medium value of tumor volume of control group after 21 days from transplant

[2] = Pharmacokinetics test (hepatic microsome stability test); settings: human hepatic microsome 1 mg/mL, 37° C., 60 min, 1 μmol/L

Chain of rat EP4 receptor (P43114 whole entry): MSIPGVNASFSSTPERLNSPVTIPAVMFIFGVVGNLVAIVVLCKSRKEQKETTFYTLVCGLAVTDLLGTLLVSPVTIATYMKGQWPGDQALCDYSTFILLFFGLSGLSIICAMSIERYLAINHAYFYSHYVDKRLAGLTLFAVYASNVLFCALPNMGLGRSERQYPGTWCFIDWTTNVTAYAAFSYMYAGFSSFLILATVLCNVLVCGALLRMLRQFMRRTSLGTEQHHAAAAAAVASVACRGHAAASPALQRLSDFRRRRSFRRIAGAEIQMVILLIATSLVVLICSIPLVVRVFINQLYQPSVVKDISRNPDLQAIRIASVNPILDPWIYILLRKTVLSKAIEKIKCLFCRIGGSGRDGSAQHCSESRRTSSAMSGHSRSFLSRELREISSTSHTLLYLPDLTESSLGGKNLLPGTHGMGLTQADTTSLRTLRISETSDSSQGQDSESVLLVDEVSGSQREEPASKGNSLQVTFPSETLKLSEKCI

Structure (SMILES)	IC50 (rat EP4 receptor) [nM]	Remaining rate (%) [2] [%]	tumor growth inhibitory effect (relative tumor volume, FIG. 1) [1]
CC(C)NC(=O)c1ccc2c(c1)[C@]1(CCO2)C[C@H]1C(=O)Nc1cc(C#N)ccc1CCCC(=O)O [Example 2-13, 4-[4-Cyano-2-({[(2′R,4S)-6-(isopropylcarbamoyl)-2,3-dihydrospiro[chromene-4,1′-cyclopropan]-2′-yl]carbonyl}amino)phenyl]butanoic acid]	7.8	100	tumor growth inhibitory effect
CNC(=O)c1ccc2c(c1)[C@]1(CCO2)C[C@H]1C(=O)Nc1cc(C#N)ccc1CCCC(=O)O [Example 1, 4-[4-Cyano-2-({[(2′R,4S)-6-(methylcarbamoyl)-2,3-dihydrospiro[chromene-4,1′-cyclopropan]-2′-yl]carbonyl}amino)phenyl]butanoic acid]	2.5	94	–
CN1CC[C@H](NC(=O)c2ccc3c(c2)[C@]2(CCO3)C[C@H]2C(=O)Nc2cc(C#N)ccc2CCCC(=O)O)C1 [Example 2-33, 4-[4-Cyano-2-({[(2′R,4S)-6-{[(3S)-1-methyl-3-pyrrolidinyl]carbamoyl}-2,3-dihydrospiro[chromene-4,1′-cyclopropan]-2′-yl]carbonyl}amino)phenyl]butanoic acid]	9.7	89	–
Cn1ccc(NC(=O)c2ccc3c(c2)[C@]2(CCO3)C[C@H]2C(=O)Nc2cc(C#N)ccc2CCCC(=O)O)n1 [Example 2-9, 4-{4-Cyano-2-[({(2′R,4S)-6-[(1-methyl-1H-pyrazol-yl)carbamoyl]-2,3-dihydrospiro[chromene-4,1′-cyclopropan]-2′-yl}carbonyl)amino]phenyl}butanoic acid]	4.5	92	–

Further molecules by falling IC50 (rat EP4 receptor), results first:

IC50 (rat EP4 receptor) [nM]	Remaining rate (%) [2] [%]	Structure (SMILES)	tumor growth inhibitory effect (relative tumor volume, FIG. 1) [1]
9.5	100	CC(C)NC(=O)c1cc2c(cc1F)OCC[C@]21C[C@H]1C(=O)Nc1cc(C#N)ccc1CCCC(=O)O [Example 20-5, 4-[4-Cyano-2-({[(2′R,4S)-7-fluoro-6-(isopropylcarbamoyl)-2,3-dihydrospiro[chromene-4, 1′-cyclopropan]-2′-yl]carbonyl}amino)phenyl]butanoic acid]	–
5.3	97	COCCNC(=O)c1ccc2c(c1)[C@]1(CCO2)C[C@H]1C(=O)Nc1cc(C#N)ccc1CCCC(=O)O [Example 2-2, 4-{4-Cyano-2-[({(2′R,4S)-6-[(2-methoxyethyl)carbamoyl]-2,3-dihydrospiro[chromene-4,1′-cyclopropan]-2′-yl}carbonyl)amino]phenyl}butanoic acid]	tumor growth inhibitory effect
